In this assay the target is Histone-binding protein RBBP4/Polycomb protein EED/Polycomb protein SUZ12/Zinc finger protein AEBP2 (Homo sapiens, UniProt O75530+Q09028+Q15022+Q6ZN18). In words: Enzymatic Activity Assay: An aliquot of each serial dilution of test compound was added to deep 384 well plate using Acoustic Technology instrument (Echo 550, LabCyte) containing reaction buffer (50 mM Tris-HCl (pH 8), 0.01% Brij35, 1 mM EDTA, 1 mM DTT, 1 mM PMSF and 1% DMSO), 10 nM purified PRC2 complex and 0.05 mg/ml core histone H3 in a 5 μl volume. The reaction was mixed gently and then pre-incubated for 20 min at 30° C. The enzymatic reaction was initiated by adding 1 uM S-Adenosyl-L-[methyl-3H]methionine and incubated for 1 hr at 30° C. After 1 hr, the reaction product was detected using a filter binding method and the amount of tritiated H3 core histone was quantitated using a scintillation counter. The format is protein-complex assay.

This passage reports IC50 results from ChEMBL document CHEMBL5729420, “Substituted imidazo[1,2-c]pyrimidines as PRC2 inhibitors” (2022).

By IC50 is commonly meant the concentration at which inhibition is half-maximal.

Histone-binding protein RBBP4/Polycomb protein EED/Polycomb protein SUZ12/Zinc finger protein AEBP2, sequence (O75530 whole entry): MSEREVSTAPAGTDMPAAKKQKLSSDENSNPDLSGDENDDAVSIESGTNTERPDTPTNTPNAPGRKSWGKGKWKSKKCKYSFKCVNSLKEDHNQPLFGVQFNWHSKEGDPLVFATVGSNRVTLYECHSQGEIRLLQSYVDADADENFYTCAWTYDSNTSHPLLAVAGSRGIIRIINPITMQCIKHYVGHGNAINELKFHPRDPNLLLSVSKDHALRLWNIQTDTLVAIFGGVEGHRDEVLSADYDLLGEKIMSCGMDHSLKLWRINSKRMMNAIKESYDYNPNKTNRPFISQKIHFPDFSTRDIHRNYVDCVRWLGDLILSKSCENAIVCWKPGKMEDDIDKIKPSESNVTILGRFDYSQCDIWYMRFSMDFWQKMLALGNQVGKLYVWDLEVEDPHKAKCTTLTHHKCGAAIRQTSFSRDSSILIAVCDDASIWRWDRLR
Histone-binding protein RBBP4/Polycomb protein EED/Polycomb protein SUZ12/Zinc finger protein AEBP2, sequence (Q15022 whole entry): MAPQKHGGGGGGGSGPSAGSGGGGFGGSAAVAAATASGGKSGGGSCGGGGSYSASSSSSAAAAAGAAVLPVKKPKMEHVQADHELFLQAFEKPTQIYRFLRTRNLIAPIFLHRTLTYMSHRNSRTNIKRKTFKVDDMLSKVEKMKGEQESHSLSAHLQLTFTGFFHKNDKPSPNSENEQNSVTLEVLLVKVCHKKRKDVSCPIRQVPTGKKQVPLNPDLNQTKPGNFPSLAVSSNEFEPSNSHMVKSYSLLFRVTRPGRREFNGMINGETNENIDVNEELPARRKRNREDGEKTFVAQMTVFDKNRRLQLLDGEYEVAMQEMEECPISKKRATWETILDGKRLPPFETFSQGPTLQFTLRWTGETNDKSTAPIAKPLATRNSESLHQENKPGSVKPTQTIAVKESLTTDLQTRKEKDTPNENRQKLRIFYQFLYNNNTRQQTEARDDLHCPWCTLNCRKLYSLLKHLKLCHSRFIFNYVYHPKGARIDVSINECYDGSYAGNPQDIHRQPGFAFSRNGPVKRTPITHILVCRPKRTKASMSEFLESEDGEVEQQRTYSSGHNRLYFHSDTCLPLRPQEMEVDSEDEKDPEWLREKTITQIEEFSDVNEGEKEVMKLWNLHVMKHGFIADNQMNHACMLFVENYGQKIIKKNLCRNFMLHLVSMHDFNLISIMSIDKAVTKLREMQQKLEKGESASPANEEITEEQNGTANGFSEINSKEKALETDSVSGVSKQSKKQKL
Histone-binding protein RBBP4/Polycomb protein EED/Polycomb protein SUZ12/Zinc finger protein AEBP2, sequence (Q6ZN18 whole entry): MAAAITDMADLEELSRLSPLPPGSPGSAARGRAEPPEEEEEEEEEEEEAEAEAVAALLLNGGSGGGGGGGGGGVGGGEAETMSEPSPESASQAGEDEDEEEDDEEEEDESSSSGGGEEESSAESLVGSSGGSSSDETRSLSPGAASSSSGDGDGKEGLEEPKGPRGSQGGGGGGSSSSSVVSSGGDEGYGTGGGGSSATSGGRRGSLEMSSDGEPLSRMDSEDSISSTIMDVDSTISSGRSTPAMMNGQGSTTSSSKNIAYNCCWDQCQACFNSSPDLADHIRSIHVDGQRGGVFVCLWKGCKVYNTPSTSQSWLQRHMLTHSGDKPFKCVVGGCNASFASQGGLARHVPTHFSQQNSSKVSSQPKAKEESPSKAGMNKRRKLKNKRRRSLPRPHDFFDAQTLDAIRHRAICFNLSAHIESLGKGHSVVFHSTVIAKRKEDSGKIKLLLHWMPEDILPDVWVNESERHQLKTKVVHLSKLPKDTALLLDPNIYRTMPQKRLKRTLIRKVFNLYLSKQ
Histone-binding protein RBBP4/Polycomb protein EED/Polycomb protein SUZ12/Zinc finger protein AEBP2, sequence (Q09028 whole entry): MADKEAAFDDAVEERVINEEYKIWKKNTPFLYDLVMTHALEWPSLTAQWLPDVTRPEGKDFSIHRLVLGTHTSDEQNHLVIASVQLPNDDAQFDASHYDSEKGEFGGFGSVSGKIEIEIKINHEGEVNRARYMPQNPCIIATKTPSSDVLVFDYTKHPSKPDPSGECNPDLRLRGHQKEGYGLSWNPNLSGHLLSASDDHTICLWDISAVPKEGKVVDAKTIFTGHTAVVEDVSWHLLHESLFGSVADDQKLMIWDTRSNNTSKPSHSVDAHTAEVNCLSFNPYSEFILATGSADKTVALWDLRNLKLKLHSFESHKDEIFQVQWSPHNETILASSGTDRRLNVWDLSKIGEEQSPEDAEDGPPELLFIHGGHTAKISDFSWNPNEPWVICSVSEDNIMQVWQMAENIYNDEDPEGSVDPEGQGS

With `Cc1cc(-c2cnc(NCc3c(F)ccc4c3CCCO4)n3cc(C#N)nc23)n(C)n1`, the IC50 was above 500 nM.
